# Structures can show the parent of a compound that is named as a salt.
# How the values were obtained:
# [1] = tested on: intracranial human glial tumors; test: Survival study, nude mice with intracranial human glial tumors; type: in vivo, mouse; conditions: i.v., three consecutive doses for three days
# Procedure: GBM-xenograft rat and mouse models were developed by intracranially implanting primary GBM cells isolated from patient brain tumor tissue. […] To investigate whether MS administration by intracarotid (i.c.) and intravenous (i.v.) routes, increases BTB permeability to different tracers, and enhances delivery to brain tumor, permeability studies were performed.
# Nude mice were intracranially implanted with cells. The tumor was allowed to grow for 7 days before treatment was initiated.
# [2] = tested on: KATP channels; test: Membrane potential assay of KATP channel activity; type: cell-based, human; conditions: RBEC, HBMVEC, RG2 and GBM cells
# Procedure: Functional activities of putative KATP channels in HBMVEC and GBM cells were measured by detecting changes in voltage across the cell membrane as described earlier (Ningarsj, N. S., Rao, M., Hashizume, K., Asotra, K., and Black, K. L. Regulation of blood-brain tumor barrier permeability by calcium-activated potassium channels J. Pharmacol. Exp. Ther., 301:838-851, 2002). A membrane potential assay kit (Molecular Devices, Sunnyvale, Calif.) provided a fast, simple and consistent mix-and-read procedure. In brief, HBMVEC and GBM cells obtained from cell passages 2-5 was suspended in 5 ml of growth medium. In two separate experiments, the cell density was adjusted to 1×10^3 cells/well and coated in sterile, clear bottom, blank 96-well plates (Corning, Inc., Acton, Mass.), pre-coated with poly L-Lysine, and allowed to achieve a monolayer within 24 h. The monolayer cells were incubated with the membrane potential assay kit reagents for 30 min and read directly by FLEXstation. The anionic pchemiometric dye that traverses between cells and the extracellular solution in a membrane potential-dependent manner serves as an indicator of vasomodulator-induced voltage changes across the cell membrane. […] Additionally, the effects of the optimum dose (10 μM) of MS and glibenclamide (100 nM) on KATP channels activity in HBMVEC and GBM cells were determined.
# [3] = tested on: GBM xenograft; test: In vivo BTB permeability (Ki by QAR) in GBM-xenograft nude rat model
# Procedure: All animal experiments were conducted in accordance with policies set by the Institutional Animal Care and Usage Committee and NIH guidelines. A rat syngeneic tumor model was prepared using female Wistar rats and a human-tumor xenograft model in athymic nude rats weighing 180-200 g were prepared for the BBB/BTB permeability studies. Although brain tumor blood vessel development is rapid in rats compared to humans, this variable should not affect the findings or conclusions because the study analyzes the response of blood vessels, regardless of how rapidly they developed, to vasomodulators. The optimum number of tumor cells and incubation period for in vivo tumor growth was determined in separate experiments. Rat glioma (RG2) cells (1×10^5) in 5 μl of medium with 1.2% methylcellulose were injected into the basal ganglia of Wistar rats, while nude rats were injected with glioblastoma multiforme (GBM) primary cells (5×10^5). The coordinates were 5-mm lateral to the bregma and 4.5 mm deep to the basal ganglia. […]
# The unilateral transfer constant, Ki (μl/g/min), which is an initial rate for blood-to-brain transfer of a radiotracer, was calculated as described by Ohno et al. (Ohno, K., Pettigrew, K. O., and Rapsport, S. T. Lower limits of cerebrovascular permeability to […] in the conscious rat. Am. J. Physiol., 253: H299-H307, 1978). […]
# [4] = tested on: metastatic breast brain tumors; test: [14C]AIB uptake in metastatic breast brain tumor model; type: in vivo, rat; conditions: intravenous co-injection
# [5] = tested on: intracerebral RG2 tumors; test: In vivo BTB permeability (Ki by quantitative autoradiography) in RG2 tumor-bearing rats; parameters: species or system rat; conditions: i.c. MS 30 μg/kg/min, RG2 tumor
# Procedure: All animal experiments were conducted in accordance with policies set by the Institutional Animal Care and Usage Committee and NIH guidelines. A rat syngeneic tumor model was prepared using female Wistar rats and a human-tumor xenograft model in athymic nude rats weighing 180-200 g were prepared for the BBB/BTB permeability studies. […] Rat glioma (RG2) cells (1×10^5) in 5 μl of medium with 1.2% methylcellulose were injected into the basal ganglia of Wistar rats, while nude rats were injected with glioblastoma multiforme (GBM) primary cells (5×10^5). The coordinates were 5-mm lateral to the bregma and 4.5 mm deep to the basal ganglia. […] In regional permeability studies, 5 min after the start of the intracarotid (i.c.) infusion, 100 μCi/kg of [^14C] […]
# The Ki was determined for radiotracers, [^14C]-AIB, [^14C]-carboplatin, and [^14C] dextran in the tumor core, tumor-adjacent brain tissue, and contralateral brain tissue using the quantitative autoradiographic (QAR) method as described earlier (Ningarsj, N. S., Rao, M., Hashizume, K., Asotra, K., and Black, K. L. Regulation of blood-brain tumor barrier permeability by calcium-activated potassium channels J. Pharmacol. Exp. Ther., 301:838-851, 2002; Ningaraj, N. S., Rao, M., and Black, K. L. Calcium-dependent potassium channels as a target protein ir. the modulation of blood-brain humor barrier.
structure (smiles),measurement,setting,value
"Nc1cc(N2CCCCC2)nc(N)[n+]1OS(=O)(=O)[O-] [MS, minoxidil sulfate]",Mean survival,[1],27.09 ± 8.7 days
same,Membrane potential dye fluorescence intensity,[2],dose-dependent decrease
same,BTB permeability (Ki),"[3]; GBM xenograft nude rat, i.c. MS 30 μg/kg/min, glibenclamide 5 μg/kg/min for 15 min",52 ± 8 µL/g/min
same,BBB permeability in normal brain surrounding tumor or normal contralateral brain,[3]; i.c. infusion,did not significantly affect BBB permeability
same,Level of [14C]AIB in brain tumor tissue versus saline,[4],approximately three times as great
same,Level of [14C]AIB surrounding the tumor and in contralateral brain versus vehicle,[4],does not differ significantly
same,"Delivery of [14C]-labeled AIB, dextran and carboplatin across the BTB",[5],significantly enhanced delivery
